Drawing on US20230073777A1, “CYCLIC-AMP RESPONSE ELEMENT BINDING PROTEIN (CBP) AND/OR ADENOVIRAL E1A BINDING PROTEIN OF 300 KDA (P300) DEGRADATION COMPOUNDS AND METHODS OF USE” (CULLGEN (SHANGHAI), INC., priority 2019, published 2023), this text covers IC50 and inhibition for 13 molecules.

One may read the IC50 as the midpoint of a concentration-inhibition curve. A high value points to weaker potency in that assay.

Where two headings read alike, the source gives them in different places.

Experiment [1] relates to LNCaP cells. The experiment is described as follows: LNCaP cell viability assay (CellTiter-Glo). As to conditions: Homo sapiens, 72 h, LNCaP prostate cancer cell viability inhibition, 3 days. Format: cell-based. In outline:
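LNCaP cells, 5000/well, exposed to compounds in 12-point 3-fold serial dilution (top 10 μM) for 3 days. Viability by CellTiter-Glo luminescence, normalized to untreated cells; IC50 by least-squares nonlinear regression.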
(ATP-based viability assays read luminescence as a measure of living cells.)

For experiment [2], the target named is P300 (Homo sapiens, UniProt Q09472). Briefly: Immunoblotting of P300 protein levels in LNCaP or 22RV1 cells. Format: cell-based. On the set-up: LNCaP or 22RV1 cells that express CBP/P300 proteins were treated with GNE-781 or the bivalent compounds; endogenous in cells; host or cells: LNCaP (clone FGC) or 22RV1 cells. The conditions noted are these: read-out: Degradation (10 nM). In a few lines: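 LNCaP or 22RV1 cells treated with compounds for indicated hours, DMSO as negative control. RIPA lysates resolved by SDS-PAGE and immunoblotted for P300 or CBP, tubulin or vinculin as loading control; chemiluminescent bands quantitated.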
P300, sequence (Q09472 whole entry): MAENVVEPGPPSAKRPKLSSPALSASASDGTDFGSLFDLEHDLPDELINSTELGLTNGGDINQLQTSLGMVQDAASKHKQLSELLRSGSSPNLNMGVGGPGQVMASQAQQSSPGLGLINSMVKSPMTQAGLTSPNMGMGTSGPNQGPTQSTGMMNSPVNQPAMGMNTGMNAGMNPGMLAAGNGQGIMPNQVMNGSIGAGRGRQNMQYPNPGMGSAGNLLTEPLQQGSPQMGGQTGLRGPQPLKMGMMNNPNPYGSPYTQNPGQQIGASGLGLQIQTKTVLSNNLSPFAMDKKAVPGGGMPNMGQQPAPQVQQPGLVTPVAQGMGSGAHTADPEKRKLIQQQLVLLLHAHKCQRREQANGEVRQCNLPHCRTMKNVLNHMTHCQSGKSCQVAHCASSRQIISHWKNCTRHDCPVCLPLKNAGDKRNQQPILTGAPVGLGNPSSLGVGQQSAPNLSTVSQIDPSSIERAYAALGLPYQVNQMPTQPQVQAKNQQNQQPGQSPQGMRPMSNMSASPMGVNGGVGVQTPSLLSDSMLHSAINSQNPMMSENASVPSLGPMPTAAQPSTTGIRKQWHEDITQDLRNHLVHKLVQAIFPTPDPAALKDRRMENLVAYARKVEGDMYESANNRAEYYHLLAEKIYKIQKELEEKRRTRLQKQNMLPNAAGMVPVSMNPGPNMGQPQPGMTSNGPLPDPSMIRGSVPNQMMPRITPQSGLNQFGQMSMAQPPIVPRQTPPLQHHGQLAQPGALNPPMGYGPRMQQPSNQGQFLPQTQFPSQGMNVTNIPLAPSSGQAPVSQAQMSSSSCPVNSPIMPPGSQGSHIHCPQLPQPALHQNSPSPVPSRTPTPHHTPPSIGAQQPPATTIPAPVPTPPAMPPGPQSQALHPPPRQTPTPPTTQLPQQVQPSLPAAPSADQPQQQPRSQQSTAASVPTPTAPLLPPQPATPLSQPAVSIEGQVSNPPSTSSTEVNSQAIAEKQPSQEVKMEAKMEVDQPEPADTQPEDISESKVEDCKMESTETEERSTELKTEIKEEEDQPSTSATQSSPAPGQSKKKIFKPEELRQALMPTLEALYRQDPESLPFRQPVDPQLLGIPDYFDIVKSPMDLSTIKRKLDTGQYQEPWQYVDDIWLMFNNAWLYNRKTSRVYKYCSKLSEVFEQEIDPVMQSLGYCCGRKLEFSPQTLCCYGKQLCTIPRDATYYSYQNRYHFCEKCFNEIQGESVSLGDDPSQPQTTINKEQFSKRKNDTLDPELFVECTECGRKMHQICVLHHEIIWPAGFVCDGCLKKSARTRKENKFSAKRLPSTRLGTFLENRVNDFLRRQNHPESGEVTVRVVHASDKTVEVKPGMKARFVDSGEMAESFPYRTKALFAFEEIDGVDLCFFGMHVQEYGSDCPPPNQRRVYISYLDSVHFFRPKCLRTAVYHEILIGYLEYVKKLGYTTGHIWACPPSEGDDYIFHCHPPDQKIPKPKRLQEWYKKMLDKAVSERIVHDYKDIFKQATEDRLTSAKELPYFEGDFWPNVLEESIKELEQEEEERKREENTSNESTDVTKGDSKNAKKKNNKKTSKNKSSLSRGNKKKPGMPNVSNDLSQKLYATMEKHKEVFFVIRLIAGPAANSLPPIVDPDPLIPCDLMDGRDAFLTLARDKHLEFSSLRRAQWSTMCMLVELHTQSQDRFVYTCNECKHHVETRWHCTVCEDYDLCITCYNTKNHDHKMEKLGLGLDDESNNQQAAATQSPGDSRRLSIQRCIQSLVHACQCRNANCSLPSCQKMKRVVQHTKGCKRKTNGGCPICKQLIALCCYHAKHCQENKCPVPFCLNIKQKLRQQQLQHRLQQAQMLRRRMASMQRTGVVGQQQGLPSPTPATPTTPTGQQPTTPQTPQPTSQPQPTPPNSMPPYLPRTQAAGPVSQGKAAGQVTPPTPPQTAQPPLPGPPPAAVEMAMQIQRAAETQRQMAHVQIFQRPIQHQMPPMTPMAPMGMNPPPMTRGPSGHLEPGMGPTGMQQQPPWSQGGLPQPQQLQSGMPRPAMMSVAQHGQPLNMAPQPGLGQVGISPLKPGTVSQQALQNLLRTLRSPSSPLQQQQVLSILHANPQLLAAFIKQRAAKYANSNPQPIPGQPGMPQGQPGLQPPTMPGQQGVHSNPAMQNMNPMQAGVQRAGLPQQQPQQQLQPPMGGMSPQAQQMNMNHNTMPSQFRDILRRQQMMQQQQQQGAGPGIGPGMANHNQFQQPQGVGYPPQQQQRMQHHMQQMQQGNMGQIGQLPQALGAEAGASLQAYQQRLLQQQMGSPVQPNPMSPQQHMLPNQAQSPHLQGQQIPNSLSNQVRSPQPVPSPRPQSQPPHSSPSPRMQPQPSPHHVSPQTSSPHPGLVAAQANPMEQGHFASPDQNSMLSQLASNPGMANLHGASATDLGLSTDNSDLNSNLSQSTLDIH

Setting [3] is: percentage of inhibition of p300 at 10 nM (Table 3).
The mark [4] stands for this setting: percentage of inhibition of p300 at 10 nM (Table 2).

`CC(=O)N1CCc2c(c(N3CCCc4cc(-c5cnn(C)c5)c(C(F)F)cc43)nn2C2CCN(C(=O)CN3CCC(CCCc4cccc5c4C(=O)N(C4CCC(=O)NC4=O)C5=O)CC3)CC2)C1` (centres unmarked) [P-147, 4-(3-(1-(2-(4-(5-acetyl-3-(7-(difluoromethyl)-6-(1-methyl-1H-pyrazol-4-yl)-3,4-dihydroquinolin-1(2H)-yl)-4,5,6,7-tetrahydro-1H-pyrazolo[4,3-c]pyridin-1-yl)piperidin-1-yl)-2-oxoethyl)piperidin-4-yl)propyl)-2-(2,6-dioxopiperidin-3-yl)isoindoline-1,3-dione] had an IC50 in experiment [1] (CellTiter-Glo (Table 3)) of 1.4 nM. Also, the inhibition at 0.01 µM in experiment [2] (setting [3]) is greater than 80%.

In experiment [1] (CellTiter-Glo (Table 3)), `CC(=O)N1CCc2c(c(N3CCCc4cc(-c5cnn(C)c5)c(C(F)F)cc43)nn2C2CCN(C(=O)CN3CC(CNc4cccc5c4C(=O)N(C4CCC(=O)NC4=O)C5=O)C3)CC2)C1` (centres unmarked) [P-158, 4-(((1-(2-(4-(5-Acetyl-3-(7-(difluoromethyl)-6-(1-methyl-1H-pyrazol-4-yl)-3,4-dihydroquinolin-1(2H)-yl)-4,5,6,7-tetrahydro-1H-pyrazolo[4,3-c]pyridin-1-yl)piperidin-1-yl)-2-oxoethyl)azetidin-3-yl)methyl)amino)-2-(2,6-dioxopiperidin-3-yl)isoindoline-1,3-dione] displayed an IC50 of 90.1 nM. Moreover, the inhibition at 0.01 µM in experiment [2] (setting [3]) was less than 20%.

On to `CNC(=O)N1CCc2c(c(N3CCCc4cc(-c5cnn(CC(=O)NCCOCCOCCOCCC(=O)N[C@H](C(=O)N6C[C@H](O)C[C@H]6C(=O)NCc6ccc(-c7scnc7C)cc6)C(C)(C)C)c5)c(C(F)F)cc43)nn2C2CCOCC2)C1` [P-077, 3-(7-(Difluoromethyl)-6-(1-((S)-17-((2S,4R)-4-hydroxy-2-((4-(4-methylthiazol-5-yl)benzyl)carbamoyl)pyrrolidine-1-carbonyl)-18,18-dimethyl-2,15-dioxo-6,9,12-trioxa-3,16-diazanonadecyl)-1H-pyrazol-4-yl)-3,4-dihydroquinolin-1(2H)-yl)-N-methyl-1-(tetrahydro-2H-pyran-4-yl)-1,4,6,7-tetrahydro-5H-pyrazolo[4,3-c]pyridine-5-carboxamide], for which the IC50 in experiment [1] (CellTiter-Glo (Table 3)) is greater than 10000 nM. Further, in experiment [2] (setting [3]), the inhibition at 0.01 µM was less than 20%.

`CNC(=O)N1CCc2c(c(N3CCCc4cc(-c5cnn(CC(=O)NCCCNc6ccc7c(c6)C(=O)N(C6CCC(=O)NC6=O)C7=O)c5)c(C(F)F)cc43)nn2C2CCOCC2)C1` (centres unmarked) [P-017, 3-(7-(Difluoromethyl)-6-(1-(2-((3-((2-(2,6-dioxopiperidin-3-yl)-1,3-dioxoisoindolin-5-yl)amino)propyl)amino)-2-oxoethyl)-1H-pyrazol-4-yl)-3,4-dihydroquinolin-1(2H)-yl)-N-methyl-1-(tetrahydro-2H-pyran-4-yl)-1,4,6,7-tetrahydro-5H-pyrazolo[4,3-c]pyridine-5-carboxamide] displayed an IC50 in experiment [1] (CellTiter-Glo (Table 2)) of 99.2 nM. For the same molecule, in experiment [2] (setting [4]), the inhibition at 0.01 µM is less than 20%.

With `CNC(=O)N1CCc2c(c(N3CCCc4cc(-c5cnn(C)c5)c(C(F)F)cc43)nn2C2CCN(C(=O)CCCCNc3ccc4c(c3)n(C)c(=O)n4C3CCC(=O)NC3=O)CC2)C1` (centres unmarked) [P-125, 3-(7-(Difluoromethyl)-6-(1-methyl-1H-pyrazol-4-yl)-3,4-dihydroquinolin-1(2H)-yl)-1-(1-(5-((1-(2,6-dioxopiperidin-3-yl)-3-methyl-2-oxo-2,3-dihydro-1H-benzo[d]imidazol-5-yl)amino)pentanoyl)piperidin-4-yl)-N-methyl-1,4,6,7-tetrahydro-5H-pyrazolo[4,3-c]pyridine-5-carboxamide], half-maximal inhibition in experiment [1] (CellTiter-Glo (Table 3)) (IC50) was put at 42.1 nM. In experiment [2] (setting [3]), the inhibition at 0.01 µM is greater than 80%.

As to `CNC(=O)N1CCc2c(c(N3CCCc4cc(-c5cnn(C)c5)c(C(F)F)cc43)nn2C2CCN(C(=O)CCOCCOCCOCCOCCNc3cccc4c3C(=O)N(C3CCC(=O)NC3=O)C4=O)CC2)C1` (centres unmarked) [P-054, 3-(7-(Difluoromethyl)-6-(1-methyl-1H-pyrazol-4-yl)-3,4-dihydroquinolin-1(2H)-yl)-1-(1-(1-((2-(2,6-dioxopiperidin-3-yl)-1,3-dioxoisoindolin-4-yl)amino)-3,6,9,12-tetraoxapentadecan-15-oyl)piperidin-4-yl)-N-methyl-1,4,6,7-tetrahydro-5H-pyrazolo[4,3-c]pyridine-5-carboxamide], the IC50 in experiment [1] (CellTiter-Glo (Table 3)) was determined as 122 nM. Besides, the inhibition at 0.01 µM in experiment [2] (setting [3]) is less than 20%.

`CNC(=O)N1CCc2c(c(N3CCCc4cc(-c5cnn(C)c5)c(C(F)F)cc43)nn2C2CCN(C(=O)CCOCCOCCOCCOCCOCCC(=O)N[C@H](C(=O)N3C[C@H](O)C[C@H]3C(=O)NCc3ccc(-c4scnc4C)cc3)C(C)(C)C)CC2)C1` [P-072, 3-(7-(Difluoromethyl)-6-(1-methyl-1H-pyrazol-4-yl)-3,4-dihydroquinolin-1(2H)-yl)-1-(1-((S)-21-((2S,4R)-4-hydroxy-2-((4-(4-methylthiazol-5-yl)benzyl)carbamoyl)pyrrolidine-1-carbonyl)-22,22-dimethyl-19-oxo-4,7,10,13,16-pentaoxa-20-azatricosanoyl)piperidin-4-yl)-N-methyl-1,4,6,7-tetrahydro-5H-pyrazolo[4,3-c]pyridine-5-carboxamide] registered a concentration for half-maximal inhibition (IC50) in experiment [1] (CellTiter-Glo (Table 3)) of 60.7 nM. Also, the inhibition at 0.01 µM in experiment [2] (setting [3]) is less than 20%.

The molecule `CC(=O)N1CCc2c(c(N3CCCc4cc(-c5cnn(C)c5)c(C(F)F)cc43)nn2C2CCN(C(=O)CCCCCCn3c(=O)n(C4CCC(=O)NC4=O)c4ccccc43)CC2)C1` (centres unmarked) [P-108, 3-(3-(7-(4-(5-Acetyl-3-(7-(difluoromethyl)-6-(1-methyl-1H-pyrazol-4-yl)-3,4-dihydroquinolin-1(2H)-yl)-4,5,6,7-tetrahydro-1H-pyrazolo[4,3-c]pyridin-1-yl)piperidin-1-yl)-7-oxoheptyl)-2-oxo-2,3-dihydro-1H-benzo[d]imidazol-1-yl)piperidine-2,6-dione] had an IC50 in experiment [1] (CellTiter-Glo (Table 3)) of 16.5 nM. In experiment [2] (setting [3]), the inhibition at 0.01 µM was 50 to 80%.

Take `CNC(=O)N1CCc2c(c(N3CCCc4cc(-c5cnn(C)c5)c(C(F)F)cc43)nn2C2CCN(C(=O)CCCCCn3c(=O)n(C4CCC(=O)NC4=O)c4ccccc43)CC2)C1` (centres unmarked) [P-105, 3-(7-(Difluoromethyl)-6-(1-methyl-1H-pyrazol-4-yl)-3,4-dihydroquinolin-1(2H)-yl)-1-(1-(6-(3-(2,6-dioxopiperidin-3-yl)-2-oxo-2,3-dihydro-1H-benzo[d]imidazol-1-yl)hexanoyl)piperidin-4-yl)-N-methyl-1,4,6,7-tetrahydro-5H-pyrazolo[4,3-c]pyridine-5-carboxamide]: the IC50 in experiment [1] (CellTiter-Glo (Table 3)) came out at 44.5 nM. Also, in experiment [2] (setting [3]), the inhibition at 0.01 µM fell in the range of 50 to 80%.

Turning to `CC(=O)N1CCc2c(c(N3CCCc4cc(-c5cnn(C)c5)c(C(F)F)cc43)nn2C2CCN(C(=O)CCCCNc3cccc4c3n(C)c(=O)n4C3CCC(=O)NC3=O)CC2)C1` (centres unmarked) [P-128, 3-(4-((5-(4-(5-Acetyl-3-(7-(difluoromethyl)-6-(1-methyl-1H-pyrazol-4-yl)-3,4-dihydroquinolin-1(2H)-yl)-4,5,6,7-tetrahydro-1H-pyrazolo[4,3-c]pyridin-1-yl)piperidin-1-yl)-5-oxopentyl)amino)-3-methyl-2-oxo-2,3-dihydro-1H-benzo[d]imidazol-1-yl)piperidine-2,6-dione], in experiment [1] (CellTiter-Glo (Table 3)), 244 nM corresponded to half-maximal inhibition (IC50). In addition, the inhibition at 0.01 µM in experiment [2] (setting [3]) was 20 to 50%.

The molecule `CNC(=O)N1CCc2c(c(N3CCCc4cc(-c5cnn(C)c5)c(C(F)F)cc43)nn2C2CCN(C(=O)CCCNc3ccc4c(c3)C(=O)N(C3CCC(=O)NC3=O)C4=O)CC2)C1` (centres unmarked) [P-003, 3-(7-(Difluoromethyl)-6-(1-methyl-1H-pyrazol-4-yl)-3,4-dihydroquinolin-1(2H)-yl)-1-(1-(4-((2-(2,6-dioxopiperidin-3-yl)-1,3-dioxoisoindolin-5-yl)amino)butanoyl)piperidin-4-yl)-N-methyl-1,4,6,7-tetrahydro-5H-pyrazolo[4,3-c]pyridine-5-carboxamide] showed an IC50 in experiment [1] (CellTiter-Glo (Table 2)) of 35.7 nM. For the same molecule, the inhibition at 0.01 µM in experiment [2] (setting [4]) is 50 to 80%.

In the case of `CNC(=O)N1CCc2c(c(N3CCCc4cc(-c5cnn(C)c5)c(C(F)F)cc43)nn2C2CCN(C(=O)CCCCCNc3ccc4c(c3)C(=O)N(C3CCC(=O)NC3=O)C4=O)CC2)C1` (centres unmarked) [P-005, 3-(7-(difluoromethyl)-6-(1-methyl-1H-pyrazol-4-yl)-3,4-dihydroquinolin-1(2H)-yl)-1-(1-(6-((2-(2,6-dioxopiperidin-3-yl)-1,3-dioxoisoindolin-5-yl)amino)hexanoyl)piperidin-4-yl)-N-methyl-1,4,6,7-tetrahydro-5H-pyrazolo[4,3-c]pyridine-5-carboxamide], inhibition in experiment [1] (CellTiter-Glo (Table 2)) was half-maximal at 4 nM (IC50). For the same molecule, the inhibition at 0.01 µM in experiment [2] (setting [4]) is greater than 80%.

Consider `CNC(=O)N1CCc2c(c(N3CCCc4cc(-c5cnn(C)c5)c(C(F)F)cc43)nn2C2CCN(C(=O)CCCCCOc3cccc4c3C(=O)N(C3CCC(=O)NC3=O)C4=O)CC2)C1` (centres unmarked) [P-084, 3-(7-(Difluoromethyl)-6-(1-methyl-1H-pyrazol-4-yl)-3,4-dihydroquinolin-1(2H)-yl)-1-(1-(6-((2-(2,6-dioxopiperidin-3-yl)-1,3-dioxoisoindolin-4-yl)oxy)hexanoyl)piperidin-4-yl)-N-methyl-1,4,6,7-tetrahydro-5H-pyrazolo[4,3-c]pyridine-5-carboxamide], for which inhibition in experiment [1] (CellTiter-Glo (Table 3)) was half-maximal at 13.1 nM (IC50). Further, in experiment [2] (setting [3]), the inhibition at 0.01 µM is 50 to 80%.
